Legend:
SH-SY5Y neuronal cells = assay: Cytoprotective effect against MPP+ iodide induced damage, MTT assay; details: MPP+ iodide 1 mM
Description: The Human Neuronal SH-SY5Y Cells were counted using hemocytometer and plated in 96 well plate at a density of 25,000 cells/well and incubated at 37° C. for 24 h. After incubation, cells were treated with recombinant lectin protein having the sequence of SEQ ID NO: 1 at concentrations ranging from 0.001 μg/ml 50 μg/ml for 24 h. After 24 h of treatment, cells were exposed to neurotoxin (MPP+ iodide, 1 mM) for 24 h. Cells treated with MPP+ iodide alone were included as negative control. Untreated cells were included as control. […] After treatment, the cytoprotective effect of SEQ ID NO: 1 on cell viability was assessed by 3-(4,5-dimethythiazol-2-yl)-2,5-diphenyl tetrazolium bromide (MTT) assay: The plate was taken out and 20 μl of 5 mg/ml of MTT 3-(4,5-dimethythiazol-2-yl)-2,5-diphenyl tetrazolium bromide solution was added to all the wells. The SH-SY5Y cells were incubated for 3 h at 37° C. The supernatant was aspirated and 150 μl of DMSO was added to each well to dissolve formazan crystals. The absorbance of each well was read at 540 nm using Synergy HT micro plate reader. The protective effect of the SEQ ID NO: 1 on survival of SH-SY5Y cells against MPP+ iodide induced damage was determined as: The viability of cells was determined as:
Where, the percentage cytotoxicity corresponding to each treatment was calculated as follows:
[formula] • X=Absorbance of cells treated with MPP+ iodide/recombinant lectin having SEQ ID NO: 1+MPP+Iodide • R=Absorbance of Control cells (Untreated) • Percentage protection was calculated as:
[(Absorbance of SEQ ID NO:1+MPP+Iodide)−(Absorbance of MPP+Iodide)/(Absorbance of Untreated)−(Absorbance of MPP+Iodide alone)]*100

Park7/DJ-1 = assay: Parkinson biomarker multiplex analysis/ELISA, MPP+ damaged SH-SY5Y; format: cell-based, human; details: MPP + Iodide (2 mM)
Description: (§1) After overnight incubation as in the previous examples, cells were treated with recombinant lectin protein having SEQ ID NO: 1 at different concentrations ranging from 0.001 μg/ml-1 μg/ml for 24 h for Parkinson disease and 0.01 μg/ml-25 μg/ml for 24 h for Alzheimer's disease. • Parkinson Disease: After 24 h of pre-treatment with recombinant lectin protein having SEQ ID NO: 1, cells were exposed (MPP+) for another 24 h. Cells treated with MPP+Iodide were included as Control. […] The cells treated with Galantamine were included as positive Control.
(§2) The levels of markers were determined by multiplex analysis as: Cell culture supernatants were diluted (1:2) with Calibrator Diluent. 50 μl of standard or sample was added per well. 50 μl of the microparticle cocktail was added to each well of the microplate and covered with a foil plate sealer. The plate was incubated for 2 hours at room temperature on a horizontal orbital microplate shaker. The plate was washed using a magnetic device designed to accommodate a microplate. Washing was done by applying the magnet to the bottom of the microplate, allowing 1 minute before removing the liquid, filling each well with wash buffer (100 μl) and allowing 1 minute before removing the liquid again. 50 μl of diluted Biotin-Antibody Cocktail was added to each well. Covered the plate with a foil plate sealer and incubated for 1 hour at room temperature on the shaker. Repeated the wash step. 50 μl of diluted Streptavidin-PE was added to each well. The plate was securely covered with a foil plate sealer and incubated for 30 minutes at room temperature on the shaker. Repeated the wash step. The microparticles were resuspended by adding 100 μl of Wash Buffer to each well. The plate was incubated for 2 minutes on the shaker and read within 90 minutes using Magpix® multiplex machine. Levels of biomarkers for Parkinson's and Alzheimer's disease were estimated using Magpix® multiplex machine.
(§3) For Parkinson's the percent modulation in each sample was determined as follows:
(§4) [{Concentration of biomarkers(pg/ml) in SEQ ID NO:1+MPP+Iodide treated cells)−Concentration of biomarkers(pg/ml) in Control cells(MPP+Iodide alone treated)}/Concentration of biomarkers(pg/ml) in Control cells(MPP+Iodide alone treated)]*100

ICAM1/CD54 = assay: as above; format: cell-based, human; details: MPP + Iodide (2 mM)
Description: as §1, §2, §3, §4

S100b = assay: as above; format: cell-based, human; details: MPP + Iodide (2 mM)
Description: as §1, §2, §3, §4

Calbindin D = assay: as above; format: cell-based, human; details: MPP + Iodide (2 mM)
Description: as §1, §2, §3, §4

Dopamine = assay: as above; format: cell-based, human; details: MPP + Iodide (2 mM)
Description: as §1, §2, §3, §4

Serotonin = assay: as above; format: cell-based, human; details: MPP + Iodide (2 mM)
Description: as §1, §2, §3, §4

Q: `C#CCN(C)[C@H](C)Cc1ccccc1` [Deprenyl, reference compound] was tested. Which “Percentage Protection” value (SH-SY5Y neuronal cells; 1 μM) did it give?
A: 41.5%

Q: And the “Percentage Protection” value (SH-SY5Y neuronal cells; 10 μM)?
A: 49%

Q: What about the “Percentage Protection” value (SH-SY5Y neuronal cells; 25 μM) of the same compound?
A: 75.6%

Q: What about the “Percentage Protection” value (SH-SY5Y neuronal cells; 50 μM) of the same compound?
A: 74.7%

Q: What about the “Percentage Protection” value (SH-SY5Y neuronal cells; 100 μM) of the same compound?
A: 67.5%

Q: And the “% Change of Biomarkers markers (with respect to Control) Park7/DJ-1” value (Park7/DJ-1; 10 μM)?
A: −6.8%

Q: What about the “% Change of Biomarkers markers (with respect to Control) Park7/DJ-1” value (Park7/DJ-1; 50 μM) of the same compound?
A: −7.9%

Q: What about the “% Change of Biomarkers markers (with respect to Control) Park7/DJ-1” value (Park7/DJ-1; 100 μM) of the same compound?
A: −9.2%

Q: What about the “% Change of Biomarkers markers (with respect to Control) ICAM1/CD54” value (ICAM1/CD54; 10 μM) of the same compound?
A: 12.9%

Q: And the “% Change of Biomarkers markers (with respect to Control) ICAM1/CD54” value (ICAM1/CD54; 50 μM)?
A: −23.7%

Q: What about the “% Change of Biomarkers markers (with respect to Control) ICAM1/CD54” value (ICAM1/CD54; 100 μM) of the same compound?
A: −37%

Q: What about the “% Change of Biomarkers markers (with respect to Control) S100b” value (shortened to “% Change … (with respect to Control) S100b”) (S100b; 10 μM) of the same compound?
A: −6.7%

Q: What about the “% Change … (with respect to Control) S100b” value (S100b; 50 μM) of the same compound?
A: −6.5%

Q: And the “% Change … (with respect to Control) S100b” value (S100b; 100 μM)?
A: −6.5%

Q: And the “% Change of Biomarkers markers (with respect to Control) Calbindin D” value (Calbindin D; 10 μM)?
A: 5%

Q: What about the “% Change of Biomarkers markers (with respect to Control) Calbindin D” value (Calbindin D; 50 μM) of the same compound?
A: 0%

Q: And the “% Change of Biomarkers markers (with respect to Control) Calbindin D” value (Calbindin D; 100 μM)?
A: 3.3%

Q: What about the “% Change of Biomarkers markers (with respect to Control) Dopamine” value (“% Change … (with respect to Control) Dopamine” below) (Dopamine; 10 μM) of the same compound?
A: 21.2%

Q: What about the “% Change … (with respect to Control) Dopamine” value (Dopamine; 50 μM) of the same compound?
A: 37.7%

Q: What about the “% Change … (with respect to Control) Dopamine” value (Dopamine; 100 μM) of the same compound?
A: −47.2%

Q: What about the “% Change of Biomarkers markers (with respect to Control) Serotonin” value (“% Change … (with respect to Control) Serotonin” for short) (Serotonin; 10 μM) of the same compound?
A: 9.1%

Q: What about the “% Change … (with respect to Control) Serotonin” value (Serotonin; 50 μM) of the same compound?
A: 33%

Q: What about the “% Change … (with respect to Control) Serotonin” value (Serotonin; 100 μM) of the same compound?
A: 17.1%

Source: US20240398899A1 (priority 2021, published 2024)
